Reference: publication PMC5489165, “Identification of benzazole compounds that induce HIV-1 transcription” (PLoS ONE, 2017)
Where two headings read alike, the source gives them in different places.

Columns and labels:
[1] = Cytotoxicity assay in stimulated PBMCs (ATP, CellTiter-Glo); type: cell-based; settings: PBMCs stimulated with PHA and IL-2, ATP quantification
Description: SupT1 cells were plated at 100,000 per well in 96-well, white-walled plates with serial dilutions of test compound in a total volume of 100 μl RPMI-1640 medium containing 10% FBS and 0.5% DMSO. PBMCs were plated similarly at 50,000 cells/well and stimulated by addition of 40 μg/ml PHA and 80 ng/ml interleukin-2 (IL-2). Cells were incubated for 72 h at 37°C, 5% CO2. ATP was quantified using the CellTiter-Glo Luminescent Cell Viability Assay (Promega, Madison, WI) on a ViewLux microplate imager (Perkin Elmer, Waltham, MA). Percent cytotoxicity was determined relative to vehicle-only treated wells.

HIV-1 RNA in ACH-2 cells = assay: HIV activation assay in ACH-2 model of latency (qRT-PCR); type: cell-based; settings: 24 h; for Induction of HIV-1 transcription in ACH-2 cells (in words): 30 μM, qRT-PCR (Fig 3); for EC10X, ACH-2: concentration for 10-fold increase in HIV-1 RNA by qRT-PCR
Description: ACH-2 cells were maintained in RPMI-1640 medium without phenol red and with 10% FBS at 37°C in a 5% CO2 atmosphere. Cells were plated at 5000/well in 96-well round-bottom plated and test compounds were added in a final concentration of 0.5% DMSO, in duplicate. Cells were incubated for 24 h at 37°C, 5% CO2, then pelleted at 2000 × g for 5 min followed by washing in 0.1 ml PBS. RNA was isolated using Invitrogen PureLink 96 RNA Purification Kit with vacuum manifold per the manufacturer’s instructions, including DNase I treatment. HIV-1 transcripts were detected using TaqMan® RNA-to-CT™ 1-step kit (Applied Biosystems, Foster City, CA) and primers/probe specific to gag (SK38 forward: 5ʹ-[…]-3ʹ; SK39 reverse: 5ʹ-[…]-3ʹ; SK19 probe: 5ʹ-6FAM […] TAMRA-3ʹ) or tat (forward: 5ʹ-[…]-3ʹ; reverse: 5ʹ-[…]-3ʹ; probe: 5ʹ-6FAM […]-3ʹ). GAPDH RNA was monitored in all assays as an endogenous control for selectivity using a pre-developed TaqMan assay reagent (Applied Biosystems, Foster City, CA). RNA was quantified on an Applied Biosystems 7900HT. PCR replicates were performed for each biological replicate. Viral RNA expression was normalized to GAPDH RNA and data are expressed as the change from vehicle-only control wells.

[2] = tested on: HeLa nuclear extracts, HDAC1, HDAC2, HDAC3, HDAC8; assay: HDAC inhibition assay (fluorometric); type: biochemical; settings: 10 μM
Description: HDAC inhibition was determined using HDAC Fluorometric Activity Assay/Drug Discovery Kit (BIOMOL International, Inc.) according to the manufacturer’s recommendations. HeLa cell nuclear extracts and purified HDACs 1, 2, 3, and 8 were obtained from BIOMOL. Briefly, HDAC inhibitors and test compounds were diluted to 5× concentration in assay buffer in a white, flat-bottom 96-well plate. HDAC samples (purified HDAC or HeLa nuclear extract) were diluted to the desired concentration in assay buffer and added to each well. HeLa extract was employed at a 150-fold dilution, while individual HDACs were tested at 0.3–9 μg/ml. Fluor de Lys™ substrate was diluted to 2× concentration in assay buffer and the HDAC reaction was initiated by addition of substrate to each well followed by incubation for 60 min at room temperature. A final concentration of 0.4% DMSO and 50 μM Fluor de Lys™ substrate was present in all samples. Samples with no enzyme were used as blanks and vehicle-only samples were used as negative controls. HDAC reactions were quenched by adding Fluor de Lys™ developer containing 2 μM trichostatin A. Plates were incubated at room temperature for 15 min prior to reading fluorescence for 0.1 s with an excitation wavelength of 360 nm and emission of 460 nm using a 5 nm slit on a Cary Eclipse Fluorescence Spectrophotometer (Varian, Inc.). […]

[3] = tested on: Kaposi's sarcoma associated herpesvirus (KSHV) in BCP-1 cells; assay: KSHV activation assay in BCP-1 cells (ORF50 qRT-PCR); type: cell-based; settings: 24 h, up to 100 μM
[4] = tested on: Epstein-Barr virus (EBV) in Raji cells; assay: EBV activation assay in Raji cells (BZLF1 qRT-PCR); type: cell-based
[5] = Protein binding, human plasma (ultrafiltration); type: in vitro ADME; settings: human, plasma, pH 7.4
Description: Binding of test compound to plasma proteins was estimated by incubation of test compounds with mouse or human plasma. Human plasma was obtained from BioreclamationIVT (Westbury, NY). […] After a 15 min incubation at 37°C, triplicate aliquots of the incubation mixtures were transferred to a Millipore Multiscreen Ultracel-10 filter plate (10 kDa molecular mass cut off, EMD Millipore, Billerica, MA). The plate was centrifuged for 60 min at 3000 × g and 37°C. After centrifugation, aliquots of both the ultrafiltrates as well as the incubation mixtures prior to ultrafiltration were analyzed by LC-MS/MS to quantify the concentrations of test compound and reference compounds.

[6] = Pharmacokinetics in CD-1 mice; type: in vivo; settings: mouse, 10 mg/kg, PO
Description: All animal studies were performed in compliance with IACUC approved protocols at AAALAC-certified animal facilities. Pharmacokinetics of test compounds were evaluated in CD-1 mice (Charles River Laboratories, Wilmington, MA). Compounds were formulated as a suspension in 0.5% hydroxypropylmethyl cellulose with 0.1% Tween 80 and administered by gavage at a dose of 10 mg/kg. […] Mice were anaesthetized with CO2 followed by terminal exsanguination as per the Guide for the Care and Use of Laboratory Animals. Blood was collected by terminal cardiac puncture at 1, 2, 4, 7, 16, and 24 h post-dose (3 mice per time point), and centrifuged to collect plasma. Brain tissue was collected at the time of blood collection and homogenized in water. The concentrations of test compound in plasma and brain tissue were quantified by liquid chromatography-tandem mass spectrometry (LC-MS/MS). Briefly, the plasma and tissue homogenate samples were treated with an acetonitrile-methanol mixture containing an internal standard that is a close structural analog of the test compounds. The treated plasma and brain homogenate samples were centrifuged and the supernatant was collected and analyzed using electro-spray LC-MS/MS.

[7] = CD-1, brain, read-out: AUC0-24, brain
[8] = CD-1, plasma, read-out: AUC0-24, plasma

| Compound | CC50 at 72 h [1] [µM] | Induction of HIV-1 transcription in ACH-2 cells (in words) (HIV-1 RNA in ACH-2 cells) | EC10X, ACH-2 (HIV-1 RNA in ACH-2 cells) [µM] | HDAC inhibitory activity (in words) [2] | Effect on ORF50 mRNA (KSHV) [3] | Effect on BLZF1 mRNA (EBV) [4] | fraction unbound at 15 min, 10 μM [5] | AUC(0-t) [6, 7] [µM·h] | Cmax ([6]; CD-1, plasma) [nM] | AUC(0-t) [6, 8] [µM·h] | Cmax, brain [6] [nM] | Effect on BLZF1 mRNA (EBV) ([4]; Raji cells, 24 h, up to 100 μM) |
| --- | --- | --- | --- | --- | --- | --- | --- | --- | --- | --- | --- | --- |
| Nc1ccc2[nH]c(-c3ccc(-c4nc5ccc(N)cc5o4)cc3)nc2c1 [Compound 2] | > 100 | induced HIV-1 transcription | 0.97 ± 0.50 | no HDAC inhibitory activity | little effect | little effect | < 0.003 | 0.054 | 180 | 0.92 | 54 |  |
| Nc1ccc2[nH]c(-c3ccc(-c4nc5cc(N)ccc5o4)cc3)nc2c1 [Compound 1, 2-(4-(5-amino-1H-benzimidazol-2-yl)phenyl)benzoxazol-5-amine] | 18 ± 6.8 | induced HIV-1 transcription | 0.39 ± 0.12 | no HDAC inhibitory activity | little effect |  | < 0.01 | 0.12 | 550 | 2.2 | 65 | little effect |
